For four compounds, IC50 results are on record in ChEMBL document CHEMBL1150565, “Cheilanthane sesterterpenes, protein kinase inhibitors, from a marine sponge of the genus Ircinia” (J Nat Prod, 2001).

Assay [1] has as its target Ribosomal protein S6 kinase alpha-5 (Homo sapiens, UniProt O75582). The assay is described as follows: Inhibition of MSK1 assessed as [33P] incorporation by scintillation proximity assay. In general terms: SPA uses beads or plates that emit light when radiolabelled molecules are held near them.
Assay [2] deals with MAP kinase-activated protein kinase 2 (Homo sapiens, UniProt P49137). The assay is described as follows: Inhibition of MAPKAPK2 assessed as [33P] incorporation by scintillation proximity assay.

By IC50 is commonly meant the point on the concentration scale where inhibition reaches its midpoint.

Sequence of MAP kinase-activated protein kinase 2 (P49137 whole entry): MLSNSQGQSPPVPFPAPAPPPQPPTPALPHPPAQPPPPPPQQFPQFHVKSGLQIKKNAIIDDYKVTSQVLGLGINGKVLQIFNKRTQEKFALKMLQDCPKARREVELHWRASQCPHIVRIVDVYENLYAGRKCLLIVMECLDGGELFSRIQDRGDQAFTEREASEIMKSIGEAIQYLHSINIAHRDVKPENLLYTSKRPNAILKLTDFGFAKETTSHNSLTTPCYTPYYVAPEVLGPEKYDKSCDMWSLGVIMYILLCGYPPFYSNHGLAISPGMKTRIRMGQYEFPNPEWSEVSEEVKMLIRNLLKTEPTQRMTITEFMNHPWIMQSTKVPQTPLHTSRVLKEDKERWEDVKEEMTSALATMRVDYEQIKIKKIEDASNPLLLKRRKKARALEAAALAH
Sequence of Ribosomal protein S6 kinase alpha-5 (O75582 whole entry): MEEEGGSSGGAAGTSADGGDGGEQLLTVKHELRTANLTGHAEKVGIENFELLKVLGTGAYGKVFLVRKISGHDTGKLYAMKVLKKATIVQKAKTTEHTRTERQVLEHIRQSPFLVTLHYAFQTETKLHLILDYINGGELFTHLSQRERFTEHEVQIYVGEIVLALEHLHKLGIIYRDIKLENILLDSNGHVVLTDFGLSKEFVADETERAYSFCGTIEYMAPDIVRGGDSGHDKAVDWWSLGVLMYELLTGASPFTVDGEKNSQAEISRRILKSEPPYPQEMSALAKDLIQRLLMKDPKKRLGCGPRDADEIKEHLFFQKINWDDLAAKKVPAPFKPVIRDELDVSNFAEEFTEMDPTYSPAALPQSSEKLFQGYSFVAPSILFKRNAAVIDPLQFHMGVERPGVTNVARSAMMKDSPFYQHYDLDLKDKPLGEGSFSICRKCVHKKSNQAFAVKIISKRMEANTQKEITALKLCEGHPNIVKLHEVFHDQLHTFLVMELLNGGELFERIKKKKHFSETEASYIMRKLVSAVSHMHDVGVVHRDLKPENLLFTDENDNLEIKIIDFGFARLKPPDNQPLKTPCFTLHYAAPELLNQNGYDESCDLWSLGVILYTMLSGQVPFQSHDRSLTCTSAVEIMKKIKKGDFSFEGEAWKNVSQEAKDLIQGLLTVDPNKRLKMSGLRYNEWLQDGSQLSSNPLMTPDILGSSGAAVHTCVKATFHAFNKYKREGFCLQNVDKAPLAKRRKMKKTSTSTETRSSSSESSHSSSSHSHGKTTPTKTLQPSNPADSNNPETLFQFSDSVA

`C=C1CC[C@H]2[C@@](C)(CC[C@H]3C(C)(C)CCC[C@]23C)[C@@H]1CC1OC(=O)C=C1CO` (stereo partly drawn): the IC50 worked out at 4 µM in assay [1] and 90 µM in assay [2].

`C=C1CC[C@H]2[C@@](C)(CC[C@H]3C(C)(C)CCC[C@]23C)[C@@H]1/C=C/C1=CC(=O)OC1O` (mixture of isomers): the IC50 in assay [1] turned out to be 4 µM; in assay [2], 90 µM.

For `C=C1CC[C@H]2[C@@](C)(CC[C@H]3C(C)(C)CCC[C@]23C)[C@@H]1CC(O)C1=CC(=O)OC1O` (mixture of isomers), the IC50 was found to be 4 µM in assay [1] and 90 µM in assay [2].

Regarding `CC1(C)CCC[C@]2(C)[C@H]3CC[C@]4(C)O[C@@H](C5=CC(=O)OC5O)C[C@H]4[C@]3(C)CC[C@@H]12` (mixture of isomers), the IC50 in assay [1] stood at 4 µM; in assay [2], 90 µM.
